Data set [1] has as its system normal human fibroblast (NHF) cells. Put plainly: NHF Cell Cytotoxicity Assay (CellTiter-Blue, 72 h), off-target effects. The data set is classed as cell-based. Conditions: Homo sapiens, Fibroblast; pooled NHF cells. On the procedure:
In some embodiments, the off-target effects of the compounds are evaluated in healthy human cells, such as in a normal human fibroblast (NHF) cell cytotoxicity assay.
Cell viability was examined following treatment at various concentrations of inhibitor (0.097656-50 μM) using a cell Titer-Blue cell viability assay. 1×10^4 normal human fibroblast cells per well were plated in 96-well assay plates in culture medium. All cells are grown in DMEM, IMDM and RPMI-1640 were supplemented with 10% FBS. After 24 hours, test compounds and vehicle controls are added to appropriate wells so the final volume was 100 μl in each well. The cells are cultured for the desired test exposure period (72 hours) at 37° C. and 5% CO2. The assay plates are removed from 37° C. incubator and 20 μL/well of CellTiter-Blue® Reagent is added. The plates are incubated using standard cell culture conditions for 1-4 hours and the plates are shaken for 10 seconds and record fluorescence at 560/590nm. For each sample well, value is normalized between the DMSO control and the highest concentration in case of plateau, and converted into a percentage. In the absence of plateau, minimum lecture is obtained from a different sample within the same experiment. For each concentration, the four replicates are averaged and standard deviation calculated. Data is fitted to a log(inhibitor) vs response curve with variable slope model using Microsoft Excel, obtaining IC50 and Hill slope variables.
A person skilled in the art would appreciate that a higher IC50 value in this NHF assay can indicate lower off-target effects.
On the technique in general: Alamar Blue is a resazurin reagent that responds to reducing activity.

Data set [2] concerns glutathione (GSH). Put plainly: Reactivity Profiling with Glutathione (GSH), half-life by HPLC. Conditions: 5 mM glutathione (GSH) in IMDM with 10% FBS.
Data set [3] deals with MV4-11 cells. Put plainly: MV4-11 Cell Cytotoxicity Assay (CellTiter-Blue, 72 h). The data set is classed as cell-based, human. Conditions: Homo sapiens, MV4-11; MV-4-11 cells. In outline: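 Viability read-out: CellTiter-Blue, 1 h, fluorescence 560/590 nm. Preceded by 72 h exposure (37° C, 5% CO2) to twofold dilution series from 50 μM, triplicate, 0.5% DMSO vehicle, applied 24 h after plating.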

On to `COc1cc(C(=O)O)ccc1N(Cc1cc(C2CC2)cc(C(C)(C)C)c1)C(=O)CN(Cc1c(F)c(F)c(F)c(F)c1F)S(=O)(=O)c1c(F)c(F)c(F)c(F)c1F` [Compound 1066, 4-(N-(3-(tert-butyl)-5-cyclopropylbenzyl)-2-(N-((perfluorophenyl)methyl)-(2,3,4,5,6-pentafluoro-phenyl)sulfonamido)acetamido)-3-methoxybenzoic acid], for which the IC50 (as a rule, the concentration that gives 50% inhibition) in data set [1] is 1 to 10000 nM; in data set [3] it was 0.01 to 316 nM. For the same compound, the half-life (commonly how long it takes for the measured level to halve) at 25 μM in data set [2] was in the range of 4.12 to 9.23 h.

For the compound `COc1cc(C(=O)O)ccc1N(Cc1cc(C2CC2)cc(C(C)(C)C)c1)C(=O)CN(Cc1ccccc1C#N)S(=O)(=O)c1c(F)c(F)c(F)c(F)c1F` [Compound 1075, 4-(N-(3-(tert-butyl)-5-cyclopropylbenzyl)-2-(N-(2-cyanobenzyl)-(2,3,4,5,6-pentafluorophenyl)sulfon-amido)acetamido)-3-methoxybenzoic acid], the values for the half-inhibitory concentration (IC50) in data set [1] and in data set [3] were 10000 to 20000 nM and 0.01 to 316 nM, respectively. Further, in data set [2], the half-life at 25 μM fell in the range of 0.00167 to 2.37 h.

For `COc1cc(C(=O)O)ccc1N(Cc1cc(C2CC2)cc(C(C)(C)C)c1)C(=O)CN(Cc1ccncc1F)S(=O)(=O)c1c(F)c(F)c(F)c(F)c1F` [Compound 1078, 4-(N-(3-(tert-butyl)-5-cyclopropylbenzyl)-2-(N-((3-fluoropyridin-4-yl)methyl)-(2,3,4,5,6-pentafluoro-phenyl)sulfonamido)acetamido)-3-methoxybenzoic acid], the IC50 was in the range of 1 to 10000 nM in data set [1] and 316 to 1000 nM in data set [3]. The same compound displayed a half-life at 25 μM in data set [2] of 0.00167 to 2.37 h.

On to `COc1cc(C(=O)O)ccc1N(Cc1cc(C2CC2)cc(C(C)(C)C)c1)C(=O)CN(Cc1c(F)cc(F)cc1F)S(=O)(=O)c1c(F)c(F)c(F)c(F)c1F` [Compound 1081], for which the IC50 in data set [1] lay within 1 to 10000 nM; in data set [3], 0.01 to 316 nM. The compound further showed a half-life at 25 μM in data set [2] of 4.12 to 9.23 h.

Regarding `COc1cc(C(=O)O)ccc1N(Cc1cc(C2CC2)cc(C(C)(C)C)c1)C(=O)CN(Cc1ccccc1C(F)(F)F)S(=O)(=O)c1c(F)c(F)c(F)c(F)c1F` [Compound 1087, 4-(N-(3-(tert-butyl)-5-cyclopropylbenzyl)-2-(N-(2-(trifluoromethyl)benzyl)-(2,3,4,5,6-pentafluoro-phenyl)sulfonamido)acetamido)-3-methoxybenzoic acid], the IC50 in data set [1] fell in the range of 20000 to 30000 nM; in data set [3], 0.01 to 316 nM. Moreover, the half-life at 25 μM in data set [2] lay in the range of 4.12 to 9.23 h.

For the compound `CC(C)(C)c1cc(CN(C(=O)CN(Cc2ccccc2F)S(=O)(=O)c2c(F)c(F)c(F)c(F)c2F)c2ccc(C(=O)O)cc2C2CC2)cc(C2CC2)c1` [Compound 1091, 4-(N-(3-(tert-butyl)-5-cyclopropylbenzyl)-2-(N-(2-fluorobenzyl)-(2,3,4,5,6-pentafluoro-phenyl)sulfonamido)acetamido)-3-cyclopropylbenzoic acid], the IC50 in data set [1] was in the range of 1 to 10000 nM; in data set [3] it was 0.01 to 316 nM. Moreover, in data set [2], the half-life at 25 μM lay in the range of 4.12 to 9.23 h.

As for `CC(C)(C)c1cc(CN(C(=O)CN(Cc2ccccc2F)S(=O)(=O)c2c(F)c(F)c(F)c(F)c2F)c2ccc(C(=O)O)cc2C(F)(F)F)cc(C2CC2)c1` [Compound 1092, 4-(N-(3-(tert-butyl)-5-cyclopropylbenzyl)-2-(N-(2-fluorobenzyl)-(2,3,4,5,6-pentafluoro-phenyl)sulfonamido)acetamido)-3-(trifluoromethyl)benzoic acid], the IC50 in data set [1] lay in the range of 10000 to 20000 nM; in data set [3], 0.01 to 316 nM. In data set [2], the half-life at 25 μM lay in the range of 4.12 to 9.23 h.

Regarding `CC(C)(C)c1cc(CN(C(=O)CN(Cc2ccccc2F)S(=O)(=O)c2c(F)c(F)c(F)c(F)c2F)c2ccc(C(=O)O)cc2OC2CCCC2)cc(C2CC2)c1` [Compound 1094, 4-(N-(3-(tert-butyl)-5-cyclopropylbenzyl)-2-(N-(2-fluorobenzyl)-(2,3,4,5,6-pentafluoro-phenyl)sulfonamido)acetamido)-3-(cyclopentyloxy)benzoic acid], the half-inhibitory concentration (IC50) fell in the range of 20000 to 30000 nM in data set [1] and 0.01 to 316 nM in data set [3]. Besides, in data set [2], the half-life at 25 μM lay within 9.23 to 1670 h.

`COc1cc(C(=O)O)ccc1N(Cc1cc(C2CC2)cc(C(C)(C)C)c1)C(=O)CN(Cc1ncccc1C(F)(F)F)S(=O)(=O)c1c(F)c(F)c(F)c(F)c1F` [Compound 1098, 4-(N-(3-(tert-butyl)-5-cyclopropylbenzyl)-2-(N-((3-(trifluoromethyl)pyridin-2-yl)methyl)-(2,3,4,5,6-pentafluoro-phenyl)sulfonamido)acetamido)-3-methoxybenzoic acid]: the values for the IC50 in data set [1] and in data set [3] were 20000 to 30000 nM and 316 to 1000 nM, respectively. Further, the half-life at 25 μM in data set [2] lay in the range of 2.37 to 4.12 h.

As for `CC(C)(C)c1cc(CN(C(=O)CN(Cc2c(F)c(F)c(F)c(F)c2F)S(=O)(=O)c2c(F)c(F)c(F)c(F)c2F)c2ccc(C(=O)O)cc2OC2CC2)cc(C2CC2)c1` [Compound 1108, 4-(N-(3-(tert-butyl)-5-cyclopropylbenzyl)-2-(N-((perfluorophenyl)methyl)-(2,3,4,5,6-pentafluorophenyl)sulfonamido)acetamido)-3-cyclopropoxybenzoic acid], the values for the IC50 in data set [1] and in data set [3] were 1 to 10000 nM and 0.01 to 316 nM, respectively. The half-life at 25 μM in data set [2] is 9.23 to 1670 h.

As for `CC(C)(C)c1cc(CN(C(=O)CN(Cc2ccccc2C(F)(F)F)S(=O)(=O)c2c(F)c(F)c(F)c(F)c2F)c2ccc(C(=O)O)cc2OC2CC2)cc(C2CC2)c1` [Compound 1111, 4-(N-(3-(tert-butyl)-5-cyclopropylbenzyl)-2-(N-(2-(trifluoromethyl)benzyl)-(2,3,4,5,6-pentafluoro-phenyl)sulfonamido)acetamido)-3-cyclopropoxybenzoic acid], the IC50 was 30000 to 100000 nM in data set [1] and 0.01 to 316 nM in data set [3]. For the same compound, in data set [2], the half-life at 25 μM was 9.23 to 1670 h.

In the case of `COc1cc(C(=O)O)ccc1N(Cc1cc(C2CC2)cc(C(C)(C)C)c1)C(=O)CN(Cc1cnccc1C(F)(F)F)S(=O)(=O)c1c(F)c(F)c(F)c(F)c1F` [Compound 1116, 4-(N-(3-(tert-butyl)-5-cyclopropylbenzyl)-2-(N-((4-(trifluoromethyl)pyridin-3-yl)methyl)-(2,3,4,5,6-pentafluoro-phenyl)sulfonamido)acetamido)-3-methoxybenzoic acid], the IC50 in data set [1] fell in the range of 10000 to 20000 nM; in data set [3], 0.01 to 316 nM. The same compound had a half-life at 25 μM in data set [2] of 2.37 to 4.12 h.

In the case of `CC(C)(C)c1cc(CN(C(=O)CN(Cc2ncccc2C(F)(F)F)S(=O)(=O)c2c(F)c(F)c(F)c(F)c2F)c2ccc(C(=O)O)cc2OC2CC2)cc(C2CC2)c1` [Compound 1119, 4-(N-(3-(tert-butyl)-5-cyclopropylbenzyl)-2-(N-((3-(trifluoromethyl)pyridin-2-yl)methyl)-(2,3,4,5,6-pentafluoro-phenyl)sulfonamido)acetamido)-3-cyclopropoxybenzoic acid], the IC50 in data set [1] was in the range of 30000 to 100000 nM; in data set [3] it was 316 to 1000 nM. The half-life at 25 μM in data set [2] is 4.12 to 9.23 h.

Consider `CC(C)(C)c1cc(CN(C(=O)CN(Cc2c(F)cc(F)cc2F)S(=O)(=O)c2c(F)c(F)c(F)c(F)c2F)c2ccc(C(=O)O)cc2OC2CC2)cc(C2CC2)c1` [Compound 1122, 4-(N-(3-(tert-butyl)-5-cyclopropylbenzyl)-2-(N-(2,4,6-trifluorobenzyl)-(2,3,4,5,6-pentafluoro-phenyl)sulfonamido)acetamido)-3-cyclopropoxybenzoic acid], for which the results for the IC50 in data set [1] and in data set [3] were 10000 to 20000 nM and 0.01 to 316 nM, respectively. This compound gave a half-life at 25 μM in data set [2] of 9.23 to 1670 h.

Consider `CC(C)(C)c1cc(CN(C(=O)CN(Cc2c(F)cc(F)cc2F)S(=O)(=O)c2c(F)c(F)c(F)c(F)c2F)c2ccc(C(=O)O)cc2C2CC2)cc(C2CC2)c1` [Compound 1123, 4-(N-(3-(tert-butyl)-5-cyclopropylbenzyl)-2-(N-(2,4,6-trifluorobenzyl)-(2,3,4,5,6-pentafluoro-phenyl)sulfonamido)acetamido)-3-cyclopropylbenzoic acid], for which the results for the half-inhibitory concentration (IC50) in data set [1] and in data set [3] were 1 to 10000 nM and 0.01 to 316 nM, respectively. In data set [2], this compound had a half-life at 25 μM of 9.23 to 1670 h.

`O=C(O)c1ccc(N(Cc2cc(C3CC3)cc(C3CC3)c2)C(=O)CN(Cc2ccccc2C(F)(F)F)S(=O)(=O)c2c(F)c(F)c(F)c(F)c2F)c(OC2CC2)c1` [Compound 1141]: the half-maximal inhibitory concentration (IC50) in data set [1] was 20000 to 30000 nM; in data set [3] it was 0.01 to 316 nM. The same compound returned a half-life at 25 μM in data set [2] of 4.12 to 9.23 h.

Regarding `CC(C)(C)c1cc(CN(C(=O)CN(Cc2cnccc2C(F)(F)F)S(=O)(=O)c2c(F)c(F)c(F)c(F)c2F)c2ccc(C(=O)O)cc2OC2CC2)cc(C2CC2)c1` [Compound 1142, 4-(N-(3-(tert-butyl)-5-cyclopropylbenzyl)-2-(N-((4-(trifluoromethyl)pyridin-3-yl)methyl)-(2,3,4,5,6-pentafluoro-phenyl)sulfonamido)acetamido)-3-cyclopropoxybenzoic acid], the concentration for half-maximal inhibition (IC50) in data set [1] is 20000 to 30000 nM; in data set [3], 0.01 to 316 nM. Also, the half-life at 25 μM in data set [2] was in the range of 4.12 to 9.23 h.

These data come from US20230159445A1, “STAT INHIBITORY COMPOUNDS AND COMPOSITIONS” (JANPIX LIMITED, priority 2020, published 2023).
